Source: patent US10130096B2, “Method for protecting useful plants or plant propagation material” (SYNGENTA PARTICIPATIONS AG, priority 2011, dated 2018)

What was measured:
Alternaria solani = Alternaria solani on tomato plants; format: in vivo; settings: 4-week old tomato plants cv. Roter Gnom, spray, inoculated two days after application
Procedure: 4-week old tomato plants cv. Roter Gnom are sprayed in a spray chamber with the formulated test compound diluted in water. The test plants are inoculated by spraying them with a spore suspension two days after application. The inoculated test plants are incubated at 22/18° C. (day/night) and 95% rh in a greenhouse and the percentage leaf area covered by disease is assessed when an appropriate level of disease appears on untreated check plants (5-7 days after application).

[1] = test system: Monographella nivalis (Microdochium nivale); test: Monographella nivalis liquid culture growth inhibition; format: cell-based; settings: photometric, 4-5 days after application, read-out: control on Monographella nivalis
Procedure: (§1) Conidia of the fungus from cryogenic storage are directly mixed into nutrient broth (PDB potato dextrose broth). After placing a (DMSO) solution of test compound into a microtiter plate (96-well format), the nutrient broth containing the fungal spores is added. The test plates are incubated at 24° C. and the inhibition of growth is determined photometrically 4-5 days after application.

Fusarium culmorum = Fusarium culmorum liquid culture growth inhibition; format: cell-based; settings: photometric, 3-4 days after application, read-out: control on Fusarium culmorum
Procedure: as §1, with “3-4” for “4-5”

[2] = test system: Mycosphaerella arachidis (Cercospora arachidicola); test: Mycosphaerella arachidis liquid culture growth inhibition; format: cell-based; settings: photometric, 4-5 days after application, read-out: control on Mycosphaerella arachidis
Procedure: (§2) Conidia of the fungus from cryogenic storage are directly mixed into nutrient broth (PDB potato dextrose broth). After placing a (DMSO) solution of test compound into a microtiter plate (96-well format), the nutrient broth containing the fungal spores is added.

[3] = test system: Glomerella lagenarium (Colletotrichum lagenarium); test: Glomerella lagenarium liquid culture growth inhibition; format: cell-based; settings: Colletotrichum orbiculare, photometric, 3-4 days after application, read-out: control on Glomerella lagenarium
Procedure: as §2

[4] = test system: Botryotinia fuckeliana (Botrytis cinerea); test: Botryotinia fuckeliana liquid culture growth inhibition; format: cell-based; settings: photometric, 3-4 days after application, read-out: control on Botryotinia fuckeliana
Procedure: Conidia of the fungus from cryogenic storage are directly mixed into nutrient broth (Vogels broth). After placing a (DMSO) solution of test compound into a microtiter plate (96-well format), the nutrient broth containing the fungal spores is added.

Pythium ultimum [5] = test: Example B-5: seed treatment against Pythium ultimum on cotton; format: in vivo; settings: Globisporangium ultimum, rate of 200 g/100 kg seeds, infested soil, number of germinated, healthy plants
Procedure: The trial is kept for 1 week in a growth room at 20° C. and darkness. After this period the trial is transferred to a greenhouse where a temperature of 21° C. and a 14 h light period is provided until the trial is finished. The following assessments are made: number of germinated, healthy plants. Each number is determined for 150 seeds per treatment (3 replicates a 50 seeds).

Pythium ultimum [6] = test: Pythium ultimum liquid culture growth inhibition; format: cell-based; settings: Globisporangium ultimum, photometric, 2-3 days after application, read-out: control on Pythium ultimum
Procedure: as §2, with “Mycelia fragments and oospores of a newly grown liquid culture” for “Conidia”, “fungus” for “fungus from cryogenic storage”, “mycelia/spore mixture” for “spores”

Pythium ultimum [7] = test: Pythium ultimum on Cotton/Pouch; format: in vivo; settings: Globisporangium ultimum, 168 h, cotton, pouch, 7 days at 17° C.
Source text: A spore/mycelium suspension is pipetted into the pouch simultaneously.

[8] = test system: Thanatephorus cucumeris (Rhizoctonia solani); test: Thanatephorus cucumeris liquid culture growth inhibition; format: cell-based; settings: photometric, 3-4 days after application, read-out: control on Thanatephorus cucumeris
Procedure: Mycelia fragments of a newly grown liquid culture of the fungus are directly mixed into nutrient broth (PDB potato dextrose broth). After placing a (DMSO) solution of the test compounds into a microtiter plate (96-well format), the nutrient broth containing the fungal material is added. The test plates are incubated at 24° C. and the inhibition of growth is determined photometrically 3-4 days after application.

[9] = test system: Pseudoperonospora cubensis; test: Pseudoperonospora cubensis on Cucumber/Pouch; format: in vivo; settings: 60 ppm; cucumber, pouch, inoculated 8 days after sowing, 7 days incubation
Source text: 8 days after sowing cucumber plants were inoculated by spraying a spore suspension on the test plants.

Puccinia recondita = Puccinia recondita on Wheat/Pouch; format: in vivo; settings: 20 ppm; wheat, pouch, inoculated 8 days after sowing, 8 days incubation
Procedure: 8 days after sowing wheat plants were inoculated by spraying a spore suspension on the test plants. After an incubation period of 8 days at 24° C./22° C.

| SMILES | pest or weed control at 60 ppm (Alternaria solani) [%] | inhibition of growth at 200 ppm [1] [%] | inhibition of growth at 200 ppm (Fusarium culmorum) [%] | inhibition of growth at 200 ppm [2] [%] | inhibition of growth at 200 ppm [3] [%] | inhibition of growth at 200 ppm [4] [%] | pest or weed control at 200 g/100 kg seeds (Pythium ultimum [5]) [%] | inhibition of growth at 200 ppm (Pythium ultimum [6]) [%] | pest or weed control at 20 ppm (Pythium ultimum [7]) [%] | inhibition of growth at 200 ppm [8] [%] | control on Pseudoperonospora cubensis [9] | control on Puccinia recondita (Puccinia recondita) |
| --- | --- | --- | --- | --- | --- | --- | --- | --- | --- | --- | --- | --- |
| OB1OCc2cc(Cl)ccc21 [Compound 1, 5-Chloro-3H-benzo[c][1,2]oxaborol-1-ol] | ≥ 60 | ≥ 80 | ≥ 80 | ≥ 80 | ≥ 80 | ≥ 80 | ≥ 50 | ≥ 80 | ≥ 50 | ≥ 80 |  |  |
| CCC(N)COB1OCc2cc(Cl)ccc21 (centres unmarked) [Compound 2, 1-(5-Chloro-3H-benzo[c][1,2]oxaborol-1-yloxymethyl)-propylamine] | ≥ 60 | ≥ 80 | ≥ 80 | ≥ 80 | ≥ 80 | ≥ 80 | ≥ 50 | ≥ 80 | ≥ 50 | ≥ 80 |  |  |
| CNCCOB1OCc2cc(Cl)ccc21 [Compound 4, [2-(5-Chloro-3H-benzo[c][1,2]oxaborol-1-yloxy)-ethyl]-methyl-amine] |  | ≥ 80 | ≥ 80 | ≥ 80 | ≥ 80 | ≥ 80 |  | ≥ 80 | ≥ 50 | ≥ 80 |  |  |
| NCCCOB1OCc2cc(Cl)ccc21 [Compound 5, 3-(5-Chloro-3H-benzo[c][1,2]oxaborol-1-yloxy)-propylamine] | ≥ 60 | ≥ 80 | ≥ 80 | ≥ 80 | ≥ 80 | ≥ 80 | ≥ 50 | ≥ 80 | ≥ 50 | ≥ 80 | at least 50% |  |
| O=[N+]([O-])c1ccc2c(c1)B(O)OC2 [Compound 7, 6-Nitro-3H-benzo[c][1,2]oxaborol-1-ol] | ≥ 60 | ≥ 80 |  | ≥ 80 | ≥ 80 |  |  | ≥ 80 | ≥ 50 |  |  | at least 50% |
| OB1OCc2cc(F)ccc21 [Compound 8, 5-Fluoro-3H-benzo[c][1,2]oxaborol-1-ol] | ≥ 60 | ≥ 80 | ≥ 80 | ≥ 80 | ≥ 80 | ≥ 80 | ≥ 50 | ≥ 80 | ≥ 50 | ≥ 80 |  |  |
| NCC(=O)OB1OCc2cc(Cl)ccc21 [Compound 9, Amino-acetic acid 5-chloro-3H-benzo[c][1,2]oxaborol-1-yl ester] |  | ≥ 80 | ≥ 80 | ≥ 80 | ≥ 80 | ≥ 80 |  | ≥ 80 | ≥ 50 |  |  |  |
| NCCCCOB1OCc2cc(Cl)ccc21 [Compound 10, 4-(5-Chloro-3H-benzo[c][1,2]oxaborol-1-yloxy)-butylamine] |  | ≥ 80 | ≥ 80 | ≥ 80 | ≥ 80 | ≥ 80 | ≥ 50 | ≥ 80 |  | ≥ 80 |  |  |
| NCCCOB1OCc2cc(F)ccc21 [Compound 12, 3-(5-Fluoro-3H-benzo[c][1,2]oxaborol-1-yloxy)-propylamine] |  | ≥ 80 | ≥ 80 | ≥ 80 | ≥ 80 | ≥ 80 | ≥ 50 | ≥ 80 | ≥ 50 | ≥ 80 |  |  |
| NCCCCOB1OCc2cc(F)ccc21 [Compound 13, 4-(5-Fluoro-3H-benzo[c][1,2]oxaborol-1-yloxy)-butylamine] |  | ≥ 80 | ≥ 80 | ≥ 80 | ≥ 80 | ≥ 80 | ≥ 50 | ≥ 80 |  | ≥ 80 |  |  |
| CCC(CN)OB1OCc2cc(Cl)ccc21 (centres unmarked) [Compound 26, 2-(5-Chloro-3H-benzo[c][1,2]oxaborol-1-yloxy)-butylamine] |  | ≥ 80 | ≥ 80 | ≥ 80 | ≥ 80 | ≥ 80 | ≥ 50 | ≥ 80 |  | ≥ 80 |  |  |
| CCC(N)COB1OCc2cc(F)ccc21 (centres unmarked) [Compound 30, 1-(5-Fluoro-3H-benzo[c][1,2]oxaborol-1-yloxymethyl)-propylamine] |  | ≥ 80 | ≥ 80 | ≥ 80 | ≥ 80 | ≥ 80 | ≥ 50 | ≥ 80 |  | ≥ 80 |  |  |
